# Peptide text beside a SMILES is read from it.
# Columns and labels:
# [1] = molecular target: T1, His tagged pΔPH-PKB-ΔC L225A mutant (Homo sapiens, UniProt P31751, L225A); assay: PIFtide responsiveness of hydrophobic groove mutant Leu 225; format: biochemical; conditions: 130 μM PIFtide
# T1 construct: pΔPH-PKB-ΔC (residues 146 to 460, phosphorylated in vitro on Thr-309); made in house; host or cells: HEK cells (transient expression), purified on Ni-NTA agarose
# Description: (§1) Mutations of conserved hydrophobic motif residues of PIFtide and PKB HM-peptide reduce or eliminate their potential to activate ΔPH-PKB-ΔC phosphorylated on Thr 309. Mutations of hydrophobic and electrostatic residues of the ΔPH-PKB-ΔC N-lobe hydrophobic groove reduces the stimulation of PKB activity by 130 μM PIFtide.
# (§2) To test the notion that a hydrophobic groove is induced in PKB to engage the hydrophobic motif, and activate the kinase, a series of His tagged pΔPH-PKB-ΔC hydrophobic groove mutants were prepared and their responsiveness to PIFtide assessed. PKB mutants were transiently expressed in HEK cells, phosphorylated in vitro with PDK1, and purified using Ni-NTA agarose. […] Wild type PKB prepared using this procedure was stimulated ˜5-fold by 130 μM PIFtide (FIG. 6B).
# (§3) PKB was assayed essentially as described by Andjelkovic et al. (1999) with 30 μM Crosstide (GRPRTSSAEG) as substrate except the protein kinase A inhibitor peptide was not added to the reactions. For peptide stimulation experiments the various peptides were dissolved in water and added to the kinase assay mix prior to adding the PKB protein. Peptides were synthesized by Franz Fischer at the FMI or purchased from Neosystem, Strasburg, France.
# PDK1 [2] = molecular target: T2, PDK1 (Homo sapiens, UniProt O15530); conditions: cited from earlier work
# T2 sequence (O15530 1-556): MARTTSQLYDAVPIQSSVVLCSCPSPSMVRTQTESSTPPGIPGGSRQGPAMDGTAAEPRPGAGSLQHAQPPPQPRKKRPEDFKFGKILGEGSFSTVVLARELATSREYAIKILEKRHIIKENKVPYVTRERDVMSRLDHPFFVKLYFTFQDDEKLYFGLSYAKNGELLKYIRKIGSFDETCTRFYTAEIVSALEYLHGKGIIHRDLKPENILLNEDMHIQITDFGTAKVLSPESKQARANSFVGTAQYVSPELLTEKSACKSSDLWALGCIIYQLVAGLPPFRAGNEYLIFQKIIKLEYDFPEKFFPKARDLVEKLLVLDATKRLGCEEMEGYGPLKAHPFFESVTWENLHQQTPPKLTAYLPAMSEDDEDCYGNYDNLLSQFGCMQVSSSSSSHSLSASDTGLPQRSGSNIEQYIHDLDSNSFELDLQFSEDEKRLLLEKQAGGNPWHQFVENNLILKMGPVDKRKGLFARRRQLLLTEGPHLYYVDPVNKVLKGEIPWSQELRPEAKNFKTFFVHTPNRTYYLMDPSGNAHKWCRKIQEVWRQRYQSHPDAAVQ
# ΔPH-PKB-ΔC = molecular target: T3, ΔPH-PKB-ΔC (Homo sapiens, UniProt P31751); assay: Isothermal titration calorimetry, peptide binding to ΔPH-PKB-ΔC
# T3 construct: ΔPH-PKB-ΔC(residues 146 to 460, not phosphorylated on Thr-309); 6xHis (N, cleaved yes); made in house; host or cells: Sf9 insect cells / baculovirus (pFastBacHTa)
# T3 sequence (P31751 146-460, stated change not applied): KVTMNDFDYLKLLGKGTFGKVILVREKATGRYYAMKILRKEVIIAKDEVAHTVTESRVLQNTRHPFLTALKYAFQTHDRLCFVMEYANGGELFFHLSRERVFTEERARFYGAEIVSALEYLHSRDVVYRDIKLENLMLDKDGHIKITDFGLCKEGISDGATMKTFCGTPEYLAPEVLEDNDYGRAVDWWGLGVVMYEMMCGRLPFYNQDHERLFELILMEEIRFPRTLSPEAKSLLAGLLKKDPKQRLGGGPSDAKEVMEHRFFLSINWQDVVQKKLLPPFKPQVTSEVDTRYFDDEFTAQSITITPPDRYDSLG
# Description: (§4) (C) Isothermal titration calorimetry measurements of the binding of PIFtide to pΔPH-PKB-ΔC (left) and ΔPH-PKB-ΔC (right). Upper panel, raw data of the titration of PIFtide into pΔPH-PKB-ΔC. Lower panel, integrated heats of injections, corrected for the heat of dilution, with the solid line corresponding to the best fit of the data using the MicroCal software.
# (§5) Using isothermal titration calorimetry, the affinity between PIFtide and both pΔPH-PKB-ΔC and ΔPH-PKB-ΔC was determined (FIG. 5C). […] The observed large decrease in entropy is […] typical of protein-peptide interactions, for example SH2-domain-phosphotyrosine peptide complexes (Ladbury et al., 1996), and is consistent with an ordering of both the protein, presumably the αB- and αC-helices of the N-lobe, and peptide on complex formation.
# [3] = molecular target: T4, pΔPH-PKB-ΔC (PKBβ residues 146 to 460, phosphorylated in vitro on Thr-309) (Homo sapiens, UniProt P31751); assay: Protein kinase B assay with Crosstide as substrate, peptide stimulation of pΔPH-PKB-ΔC; format: biochemical; conditions: Crosstide substrate
# T4 construct: pΔPH-PKB-ΔC (residues 146 to 460, phosphorylated in vitro on Thr-309); 6xHis (N, cleaved yes); made in house; host or cells: Sf9 insect cells / baculovirus (pFastBacHTa)
# T4 sequence (P31751 146-460, stated change not applied): as above
# Description: To test the model that Ser 474 phosphorylation promotes an interaction between the hydrophobic motif and the induced hydrophobic groove of the N-terminal lobe, thereby causing an allosteric activation of the kinase, the ability of peptides modelled on the hydrophobic motif of PKB to activate the enzyme via an intermolecular association with the N-terminal lobe was assessed.
# as §3
# All experiments were performed in either duplicate or triplicate.
# [4] = molecular target: T5, His tagged pΔPH-PKB-ΔC R202D mutant (Homo sapiens, UniProt P31751, R202D); assay: PIFtide responsiveness of charge reversal mutant R202D; format: biochemical
# T5 construct: pΔPH-PKB-ΔC (residues 146 to 460, phosphorylated in vitro on Thr-309); made in house; host or cells: HEK cells (transient expression), purified on Ni-NTA agarose
# T5 sequence (P31751 146-460 R202D): as the sequence (P31751 146-460, stated change not applied) above, with R57D counted along it
# Description: as §1, §2
# Electrostatic interactions are important in defining high affinity PIFtide and PKB HM peptide associations with PKB (FIG. 5B), and form the basis for the increased affinity of the HM for the N-lobe and subsequent activation of PKB by Ser 474 phosphorylation. […] The equivalent residue of PKA, Arg 93, which is also conserved in PKC and PRK2, forms a water-mediated salt bridge to the carboxylate group of Glu 349 (FIG. 2).
# PKB was assayed essentially as described by Andjelkovic et al. (1999) with 30 μM Crosstide (GRPRTSSAEG) as substrate except the protein kinase A inhibitor peptide was not added to the reactions. […]
# PDK1 [5] = molecular target: T2, PDK1; conditions: cited from earlier work; remark: listed apart in the source
# pΔPH-PKB-ΔC = molecular target: T6, pΔPH-PKB-ΔC (Homo sapiens, UniProt P31751); assay: Isothermal titration calorimetry, peptide binding to pΔPH-PKB-ΔC; conditions: ITC; read-out: equilibrium dissociation constant
# T6 construct: pΔPH-PKB-ΔC (residues 146 to 460, phosphorylated in vitro on Thr-309); 6xHis (N, cleaved yes); made in house; host or cells: Sf9 insect cells / baculovirus (pFastBacHTa)
# T6 sequence (P31751 146-460, stated change not applied): as the sequence (P31751 146-460, stated change not applied) above
# Description: as §4, §5
# T1 sequence (P31751 146-460 L225A): as the sequence (P31751 146-460, stated change not applied) above, with L80A counted along it
smiles,measurement,setting,value
CC[C@H](C)[C@H](NC(=O)[C@H](Cc1ccc(O)cc1)NC(=O)[C@H](CC(=O)O)NC(=O)[C@H](Cc1ccccc1)NC(=O)[C@H](CC(=O)O)NC(=O)[C@H](CCCNC(=N)N)NC(=O)[C@H](Cc1ccccc1)NC(=O)[C@H](CCSC)NC(=O)[C@H](CCC(=O)O)NC(=O)[C@H](CCC(N)=O)NC(=O)[C@H](CCC(=O)O)NC(=O)[C@H](CCC(=O)O)NC(=O)[C@H](CCC(=O)O)NC(=O)[C@H](CO)NC(=O)[C@H](CC(C)C)NC(=O)[C@@H](NC(=O)[C@H](CCCNC(=N)N)NC(=O)[C@@H]1CCCN1C(=O)[C@H](CCC(=O)O)NC(=O)[C@@H](N)CCCNC(=N)N)[C@@H](C)CC)C(=O)N[C@@H](C)C(=O)N[C@@H](CC(=O)O)C(=O)N[C@@H](Cc1c[nH]c2ccccc12)C(=O)O [PIFtide] (H-REPRILSEEEQEMFRDFDYIADW-OH; N-terminus and C-terminus assumed),responsiveness to PIFtide (in words),[1],almost a complete loss of responsiveness
same,stimulation of PDK1 activity,PDK1 [2],four-fold
same,binding to ΔPH-PKB-ΔC (in words),ΔPH-PKB-ΔC,can bind
same,enthalpy change ΔH,ΔPH-PKB-ΔC; ITC,-16.0 kcal/mol
same,entropy term TΔS,ΔPH-PKB-ΔC; ITC,-9.2 kcal/mol
same,Kd,"ΔPH-PKB-ΔC; ITC, read-out: dissociation constant",5.5 µM
same,concentration of maximum and saturable activation,[3],20 µM
same,specific activity of pΔPH-PKB-ΔC maximally activated by PIFtide,[3],350 nmol/min/mg
same,EC50,"[3]; value of PIFtide(D->A) called estimated, read-out: EC50 for activation of pΔPH-PKB-ΔC",3000 nM
same,ability of PIFtide to activate R202D PKB (in words),[4]; 130 μM PIFtide,almost eliminates
same,responsiveness of R202D PKB (in words),[4]; higher concentrations of the peptide,more responsive
same,effect on thermal stability of PDK1 (in words),PDK1 [5],greatly increases
same,Kd,pΔPH-PKB-ΔC,6 µM
